Among the test systems are EKVX NSCLC; SW-620 colon; KM12 colon; OVCAR-5 ovarian; BT-549 breast; OVCAR-3 ovarian; A549 NSCLC; ACHN renal; OVCAR-4 ovarian; A498 renal.
Holding throughout (assay): DTP human tumour cell line panel, 48 h

The structures appear in SMILES notation.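 Protocol summary: plate cells (96-well), add compound at 5 concentrations, incubate 48 h, interpolate endpoints linearly. At the GI50, growth is halved. TGI: concentration producing complete growth inhibition.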

Turning to `COc1cc(/C=C2\C(=O)N(c3ccccc3)c3ccccc32)cc(OC)c1OC`, the GI50 (usually the concentration giving 50% growth inhibition) in the experiment with EKVX NSCLC is 23.5 µM; in the experiment on SW-620 colon it was 5.96 µM; in the experiment on KM12 colon it was 3.84 µM; with OVCAR-5 ovarian, 14.1 µM; in the experiment on BT-549 breast, 15.5 µM; in the experiment with OVCAR-3 ovarian it was 5.93 µM. Also, the GI50 was 11.3 µM in the experiment on A549 NSCLC, 6.32 µM in the experiment on ACHN renal, 10.4 µM with OVCAR-4 ovarian and 18.1 µM with A498 renal. For the same compound, the TGI (in general, the concentration at which net growth stops) in the experiment on EKVX NSCLC was 65.6 µM; in the experiment with SW-620 colon it was more than 100 µM; in the experiment on KM12 colon, 20.1 µM; in the experiment with OVCAR-5 ovarian, 29 µM; in the experiment with BT-549 breast, 47.4 µM; in the experiment with OVCAR-3 ovarian it was 26.1 µM. Moreover, the TGI with A549 NSCLC came to 40.9 µM; in the experiment on ACHN renal it was 20.7 µM; with OVCAR-4 ovarian it was 23.7 µM; with A498 renal, 38.9 µM.
As for `O=C1NC(c2c(Cl)cccc2Cl)Nc2ccccc21` (stereo not given), the TGI with EKVX NSCLC is more than 100 µM; in the experiment on SW-620 colon, more than 100 µM; in the experiment on KM12 colon it was 43.7 µM; in the experiment on OVCAR-5 ovarian it was more than 100 µM; in the experiment with BT-549 breast, more than 100 µM; in the experiment on OVCAR-3 ovarian it was more than 100 µM. Also, the TGI with A549 NSCLC, in the experiment on ACHN renal, in the experiment on OVCAR-4 ovarian and with A498 renal was more than 100 µM throughout.
On to `N=c1n(Cc2ccccc2)c(N)cc(=O)n1Cc1ccccc1`, for which the GI50 in the experiment with EKVX NSCLC is 2.12 µM; with SW-620 colon, 3.05 µM; in the experiment with KM12 colon, 4.75 µM; with OVCAR-5 ovarian, 4.27 µM; in the experiment with BT-549 breast it was 2.65 µM; with OVCAR-3 ovarian it was 3.34 µM. Further, the GI50 is 1.19 µM in the experiment with A549 NSCLC, 0.747 µM in the experiment with ACHN renal, 2.41 µM in the experiment on OVCAR-4 ovarian and 5.04 µM in the experiment with A498 renal. Moreover, the TGI in the experiment with EKVX NSCLC was 5.42 µM; in the experiment with SW-620 colon, 11.1 µM; in the experiment with KM12 colon, 29.3 µM; in the experiment on OVCAR-5 ovarian it was 14.9 µM; in the experiment on BT-549 breast, 10.3 µM; with OVCAR-3 ovarian, 8.43 µM. Moreover, the TGI was found to be 2.56 µM with A549 NSCLC, 5.25 µM in the experiment with ACHN renal, 10.5 µM with OVCAR-4 ovarian and 47.5 µM in the experiment on A498 renal.
For `OCC1OC2OC3C(CO)OC(OC4C(CO)OC(OC5C(CO)OC(OC6C(CO)OC(OC7C(CO)OC(OC1C(O)C2O)C(O)C7O)C(O)C6O)C(O)C5O)C(O)C4O)C(O)C3O` (stereo not given) (tested in a mixture with another compound), the TGI in the experiment on EKVX NSCLC, with SW-620 colon, in the experiment on KM12 colon, in the experiment on OVCAR-5 ovarian, in the experiment on BT-549 breast and in the experiment with OVCAR-3 ovarian was more than 100 µM in each case. In addition, the TGI in the experiment on A549 NSCLC, in the experiment with ACHN renal, with OVCAR-4 ovarian and with A498 renal was more than 100 µM in each case.
As to `CCC(c1ccc2cc(O)ccc2c1)C(C)(C)C(=O)O` (stereo not given), the TGI with EKVX NSCLC, with SW-620 colon, in the experiment on KM12 colon, in the experiment on OVCAR-5 ovarian, with BT-549 breast and in the experiment with OVCAR-3 ovarian was more than 100 µM throughout. Also, the TGI in the experiment on A549 NSCLC, in the experiment on ACHN renal, in the experiment on OVCAR-4 ovarian and in the experiment with A498 renal was more than 100 µM in each case.
In the case of `C=CC[C@@H]1/C=C(\C)C[C@H](C)C[C@H](OC)[C@H]2O[C@@](O)(C(=O)C(=O)N3CCCC[C@H]3C(=O)O[C@H](/C(C)=C/C3CC[C@@H](O)[C@H](OC)C3)[C@H](C)[C@@H](O)CC1=O)[C@H](C)C[C@@H]2OC` (stereo not given in full), the GI50 in the experiment on EKVX NSCLC was 14.2 µM; in the experiment with SW-620 colon, 16.5 µM; in the experiment with KM12 colon it was 14.9 µM; in the experiment on OVCAR-5 ovarian it was 17.2 µM; in the experiment with BT-549 breast it was 10 µM; in the experiment with OVCAR-3 ovarian it was 14.2 µM. Also, the GI50 in the experiment with A549 NSCLC is 12.7 µM; in the experiment with ACHN renal, 15.4 µM; in the experiment on OVCAR-4 ovarian it was 13.9 µM; in the experiment on A498 renal, 9.95 µM. The TGI worked out at 34.5 µM in the experiment with EKVX NSCLC; 32.2 µM in the experiment on SW-620 colon; 28.7 µM with KM12 colon; 37.2 µM in the experiment on OVCAR-5 ovarian; 27.2 µM with BT-549 breast; 27.2 µM in the experiment with OVCAR-3 ovarian. Besides, the TGI in the experiment with A549 NSCLC stood at 25.7 µM; in the experiment with ACHN renal, 29.5 µM; in the experiment on OVCAR-4 ovarian, 27.2 µM; in the experiment on A498 renal it was 24.3 µM.
For the compound `O=C(CN1C(=O)S/C(=C\C(Cl)=C\c2ccccc2)C1=O)NCCc1ccc(O)cc1`, the GI50 with EKVX NSCLC is 2.04 µM; in the experiment with SW-620 colon, 1.82 µM; in the experiment with KM12 colon, 1.7 µM; in the experiment on OVCAR-5 ovarian, 2.31 µM; in the experiment on BT-549 breast, 2.03 µM; with OVCAR-3 ovarian it was 1.69 µM. The GI50 with A549 NSCLC is 3.1 µM; in the experiment on ACHN renal, 2.55 µM; in the experiment with OVCAR-4 ovarian, 2.61 µM; in the experiment on A498 renal, 1.65 µM. Besides, the TGI in the experiment with EKVX NSCLC worked out at 4.74 µM; with SW-620 colon, 4.22 µM; with KM12 colon, 3.43 µM; in the experiment on OVCAR-5 ovarian, 5.66 µM; in the experiment on BT-549 breast it was 4.9 µM; with OVCAR-3 ovarian it was 3.27 µM. Further, the TGI in the experiment with A549 NSCLC was more than 100 µM; in the experiment on ACHN renal it was 8.06 µM; in the experiment with OVCAR-4 ovarian, 11.9 µM; in the experiment with A498 renal it was 7.75 µM.
With `NC1=CC(=O)c2nc3ccccc3c3ccnc1c23`, the GI50 in the experiment on EKVX NSCLC is 9.14 µM; in the experiment with SW-620 colon, 3.14 µM; with KM12 colon, 3.05 µM; in the experiment on OVCAR-5 ovarian, 13.8 µM; in the experiment on BT-549 breast, 6.9 µM; in the experiment on OVCAR-3 ovarian, 3.6 µM. In addition, the GI50 in the experiment on A549 NSCLC was 0.132 µM; in the experiment on ACHN renal it was 3.15 µM; in the experiment with OVCAR-4 ovarian, 7.7 µM; with A498 renal, 6.19 µM. Further, the TGI in the experiment on EKVX NSCLC was 29.4 µM; with SW-620 colon it was more than 100 µM; in the experiment with KM12 colon it was more than 65.9 µM; in the experiment on OVCAR-5 ovarian it was 62 µM; in the experiment on BT-549 breast, 27.9 µM; in the experiment on OVCAR-3 ovarian, more than 51.9 µM. The TGI with A549 NSCLC is more than 21.6 µM; in the experiment on ACHN renal it was 33 µM; with OVCAR-4 ovarian it was more than 59 µM; in the experiment on A498 renal, 40.8 µM.
For the compound `Nc1ccc(-c2nc3ccccc3o2)cc1S`, the GI50 in the experiment with EKVX NSCLC is 11.6 µM; in the experiment with SW-620 colon it was 20.7 µM; with KM12 colon, 8.1 µM; in the experiment with OVCAR-5 ovarian, 19.2 µM; in the experiment with BT-549 breast, 23.6 µM; in the experiment on OVCAR-3 ovarian, 15.8 µM. The GI50 with A549 NSCLC was 14.3 µM; in the experiment on ACHN renal it was 12.1 µM; in the experiment with OVCAR-4 ovarian, 7.58 µM; with A498 renal, 28.3 µM. Also, the total growth inhibition concentration (TGI) was found to be 55.3 µM in the experiment with EKVX NSCLC; 44.5 µM in the experiment with SW-620 colon; 35.2 µM with KM12 colon; 45.3 µM with OVCAR-5 ovarian; 49.8 µM in the experiment on BT-549 breast; 31 µM in the experiment on OVCAR-3 ovarian. The TGI in the experiment on A549 NSCLC turned out to be 41.5 µM; with ACHN renal it was 24.4 µM; with OVCAR-4 ovarian, 26 µM; in the experiment on A498 renal it was 70.6 µM.
Consider `CC(C(=O)O)/C(=C\c1ccc2c(c1)OCO2)C(=O)O` (stereo not given), for which the TGI in the experiment on EKVX NSCLC is more than 100 µM; with SW-620 colon, more than 100 µM; with KM12 colon, more than 100 µM; in the experiment on OVCAR-5 ovarian it was more than 61.5 µM; in the experiment on BT-549 breast, more than 100 µM; in the experiment on OVCAR-3 ovarian it was more than 100 µM. For the same compound, the TGI with A549 NSCLC, in the experiment on ACHN renal, with OVCAR-4 ovarian and in the experiment with A498 renal was more than 100 µM in each case.
Turning to `Cn1ccnc1C(=O)/C=C/c1ccc(CC(=O)Nc2ccc(F)cc2)cc1`, the GI50 with EKVX NSCLC was 5.5 µM; in the experiment on SW-620 colon, 1.97 µM; in the experiment with KM12 colon it was 1.62 µM; with OVCAR-5 ovarian, 4.36 µM; with BT-549 breast, 1.32 µM; in the experiment on OVCAR-3 ovarian it was 0.962 µM. The GI50 with A549 NSCLC was 6.43 µM; in the experiment with ACHN renal it was 5.74 µM; with OVCAR-4 ovarian it was 5.68 µM; in the experiment with A498 renal it was 5.65 µM. The TGI with EKVX NSCLC is more than 25 µM; with SW-620 colon, 12 µM; in the experiment on KM12 colon, 5.52 µM; in the experiment with OVCAR-5 ovarian, 10.9 µM; in the experiment on BT-549 breast, 6.01 µM; in the experiment on OVCAR-3 ovarian, 3.67 µM. Moreover, the TGI in the experiment on A549 NSCLC was more than 25 µM; in the experiment on ACHN renal, more than 25 µM; in the experiment on OVCAR-4 ovarian it was more than 25 µM; in the experiment with A498 renal it was 15.3 µM.

These data come from PubChem BioAssay (NCI).
